Measured values as given in patent US4526888A, “Nephrotoxicity inhibitors for aminoglycoside antibiotics” (Bristol-Myers Company, priority 1983, dated 1985).
“And” between values parts separate entries of the source, which are not always exact repeats. Equal values may be shown once. Read-outs that look alike come from different tables or passages of the source.

Key:
[1] = system: renal brush border membranes of proximal tubule cells; experiment: In vitro gentamicin transport inhibition, isolated renal brush border membrane vesicles; type: biochemical; settings: 3H-gentamicin transport, rat renal brush border membrane vesicles, 30 second incubation; multiple of aminoglycoside molar concentration
Description: An in vitro screening program was established to study the selective inhibition of aminoglycoside transport across renal brush border membranes of proximal tubule cells. The screening tests employed isolated, purified brush border membrane as described by Kinsella et al., Biochem. Biophys. Acta., 552: 468-477 (1979) and Williams et al., Tox. Applied Pharmacol., 61: 243-251 (1981), comprising isolation and purification of rat renal cortical membranes via differential centrifugation, cationic precipitation and discontinuous sucrose gradient techniques. […] The transport was quantified by liquid scintillation techniques as described by Kinsella et al., J. Pharmacol. Exp. Ther., 209: 443-450 (1979). Gentamicin transport was characterized, FIG. 1, as to time and concentration dependency, and as to specificity. Gentamicin transport was then measured at a fixed concentration of gentamicin (0.5 mM) in the presence of prospective inhibitors at 5X molar concentration. […] The reaction media was then vacuum filtered on 0.3 micron Millipore filters. The filters were washed twice with 2 ml of the buffer and removed and counted using liquid scintillation spectroscopy techniques. […] The inhibitors were solubilized in the above-described buffer.

[2] = system: rats; experiment: Fourteen day subacute nephrotoxicity model in rats, histopathologic examination of renal tissue; settings: for in vivo nephroprotective activity (in words): summary of Table III
Description: (§1) A fourteen (14) day subacute nephrotoxicity model in rats was utilized to test the in vivo efficacy of aminoglycoside-transport inhibitor combinations. […] Though blood urea nitrogen (BUN) was monitored as a clinical parameter of renal function, the primary evaluation of nephrotoxicity in this model involves histopathologic examination of renal tissue, which is a more accurate and sensitive method for assessing nephrotoxicity [Hottendorf et al., Antimicrob.
(§2) Male Sprague-Dawley rats [Charles River Breeding Laboratories, Inc., (CRL: COBS CD (SD) BR)] approximately 6 weeks old and weighing 140-160 gms upon arrival were used. They were conditioned for at least 5 days prior to the start of the study. Only animals found to be clinically healthy were selected. Rats were identified individually by number on the tail with black marking pens. During the study the rats were housed individually in cages of the appropriate size and type in a temperature-controlled room. Rodent Laboratory Chow (pellet, Purina Ralston Company) and water was offered ad libitum.
(§3) The aminoglycoside and aminoglycoside-inhibitor mixtures were administered subcutaneously twice daily for 14 days.
(§4) All rats were euthanized by an overdose of sodium pentobarbital on study Day 15.
(§5) The kidneys were removed and examined grossly. A longitudinal section of the left kidney and a cross section of the right kidney from each rat were preserved in 10% neutral buffered Formalin for histopathological evaluation. Tissue sections (6 μm each) were stained with hematoxylin and eosin, and the resulting tissue slides were randomized, masked, and examined by a single pathologist without knowledge of the animal's treatment.
(§6) Lesions encountered in the renal cortex included tubular vacuolar or granular degeneration, peritubular inflammation, tubular necrosis, tubular dilatation, tubular basophilia, and interstitial fibrosis. The extent and distribution of each of these lesions in both kidneys of every rat were scored as follows: 0, absence of lesion; 1, lesion represented in fewer than 10% of the nephrons; 2, lesion represented in 10 to 50% of the nephrons; 3, lesion represented in 50 to 90% of the nephrons; and 4, lesion represented in more than 90% of the nephrons. Since these lesions are all interrelated and represent various stages of proximal tubular damage, the lesion scores were summed to produce a single nephrotoxicity response for each animal, with a possible severity range of 0 to 24.
(§7) Nephrotoxicity was monitored by blood urea nitrogen (BUN) analysis and histopathologic examination of renal tissue.
(§8) Aminoglycosides and aminoglycoside-inhibitor mixtures were administered subcutaneously twice daily for fourteen days.
(§9) All rats were euthanized by an overdose of sodium pentobarbital on study Day 15. The kidneys were removed, examined grossly and placed in 10% neutral buffered formalin for subsequent histopathologic evaluation.

[3] = system: rats; settings: rat, in vivo
Description: as §1, §2, §3, §4, §5, §6, §7, §8, §9

[4] = multiple of AG dose: Molar 0.3 (Mg 15 Lysine10, 10 Aspartic acid90, 6 Asparagine90)
[5] = multiple of AG dose: Molar 0.1 (Mg 0.7 Lysine20, 2 Asparagine90)
[6] = multiple of AG dose: Molar 1 (Mg 15 Glutamic acid60, 20 Asparagine90)

Compound: O=S(=O)([O-])CO.[Na+] [Sodium formaldehyde bisulfite]
- I50 (molar multiples producing 50% transport inhibition) [1]: 10 X
- Nephroprotective Activity ([2]; multiple of AG dose: Molar 136, Mg 40): + (less than 50% reduction)

Compound: Poly-l-lysine10
- I50 (molar multiples producing 50% transport inhibition) [1]: 1 X
- Nephroprotective Activity [2, 4]: 0

Compound: polylysine20
- I50 (molar multiples producing 50% transport inhibition) [1]: 0.05 X
- Nephroprotective Activity [2, 5]: + (less than 50% reduction)
- in vivo nephroprotective activity (in words) [2]: showed any nephroprotective activity

Compound: gentamicin sulfate [GENTM]
- Histopath. Score (TOTAL), group value below animal scores ([2]; Example II Group II, gentamicin 10 mg/kg sc twice daily 14 days): 4.2
- Histopath. Score (TOTAL), individual animal ([2]; Example II Group II, gentamicin 10 mg/kg sc twice daily 14 days, Day 15, range 0 to 24): 1 and 5 and 6 and 4
- Histopath. Score (TOTAL), group value below animal scores ([2]; Example II Group III, gentamicin 20 mg/kg): 4.8
- Histopath. Score (TOTAL), individual animal ([2]; Example II Group III, gentamicin 20 mg/kg sc twice daily 14 days): 4 and 3 and 5 and 8
- Histopath. Score (TOTAL), group value below rat scores ([2]; Example III Group II, gentamicin 20 mg/kg): 8.8
- Histopath. Score (TOTAL), individual rat ([2]; Example III Group II, gentamicin 20 mg/kg sc twice daily fourteen days): 8 and 9 and 10
- nephrotoxicity in this test (conclusion in words) ([2]; aminoglycoside alone groups): demonstrates the nephrotoxicity of gentamicin
- dose necessary to elicit a significant and reproducible nephrotoxic response ([2]; bid, 14 days, rats): 20 mg/kg/day

Compound: Poly-l-glutamic Acid60
- I50 (molar multiples producing 50% transport inhibition) [1]: < 0.1 X
- Nephroprotective Activity [2, 6]: 0

Compound: NCCCNCCCCNCCCN [Spermine]
- I50 (molar multiples producing 50% transport inhibition) [1]: 3 X

Compound: Poly-l-asparagine90
- I50 (molar multiples producing 50% transport inhibition) [1]: 0.1 X
- Nephroprotective Activity [2, 5]: + (less than 50% reduction)
- Nephroprotective Activity ([2]; multiple of AG dose: Molar 0.15, Mg 3): + (less than 50% reduction)
- Nephroprotective Activity [2, 4]: + (less than 50% reduction)
- Nephroprotective Activity ([2]; multiple of AG dose: Molar 0.5, Mg 10): +++ (reduction 100%)
- Nephroprotective Activity [2, 6]: +++ (reduction 100%)
- in vivo nephroprotective activity (in words) [2]: greatest degree of in vivo nephroprotective activity

Compound: Tetralysine [Lysine4]
- I50 (molar multiples producing 50% transport inhibition) [1]: 10 X
- Nephroprotective Activity ([2]; multiple of AG dose: Molar 16, Mg 25): 0

Compound: Poly-l-aspartic Acid90
- I50 (molar multiples producing 50% transport inhibition) [1]: < 0.1 X
- Nephroprotective Activity [2, 4]: +++ (reduction 100%)
- in vivo nephroprotective activity (in words) [2]: greatest degree of in vivo nephroprotective activity

Compound: NCC[C@H](O)C(=O)N[C@@H]1C[C@H](N)[C@@H](O[C@H]2O[C@H](CN)[C@@H](O)[C@H](O)[C@H]2O)[C@H](O)[C@H]1O[C@H]1O[C@H](CO)[C@@H](O)[C@H](N)[C@H]1O.O=S(=O)(O)O.O=S(=O)(O)O [AMIKACIN, amikacin sulfate]
- nephrotoxicity in this test (conclusion in words) [3]: demonstrates the nephrotoxicity of amikacin
